In patent publication US8716293B2, “Macrocyclic integrase inhibitors” (Janssen R&D Ireland, priority 2010, dated 2014):

Key:
[1] = system: HIV-1 LAI (IIIB); experiment: antiviral assay in the presence of 50% human serum; format: cell-based; conditions: MT-4-LTR-EGFP cells, 4 days, resazurin cell viability
Experimental: For the antiviral assay in the presence of 50% human serum, MT-4-LTR-EGFP cells were infected with HIV-1 LAI (IIIB) at a MOI of 0.001 to 0.01 CCID50/cell in RPMI1640 medium. Following 1 h of incubation, cells were washed and plated into a 96-well plate containing serial dilutions of test compound in the presence of 10% fetal calf serum or 50% human serum. After 4 days of incubation, the EC50 in the presence of 50% human serum (EC50/HS) was determined by a cell viability assay using resazurin (as described by Fields, R. D., and M. V. Lancaster (1993) Am. Biotechnol. Lab. 11:48-50).

[2] = system: HIV-1 SDM strain G140S-Q148H; experiment: cell-based HIV-1 replication assay in MT4-LTR-EGFP cells, G140S-Q148H mutant; conditions: fold change in activity against G140S-Q148H mutant compared to wild type HIV
Excerpt: (§1) MT4-LTR-enhanced green fluorescent protein (EGFP) cells were obtained by transfecting MT4 cells with a selectable construct encompassing the coding sequences for the HIV LTR as a promoter for the expression of EGFP and subsequent selection of permanently transfected cells. MT4-cytomegalovirus (CMV)-EGFP cells were obtained by selection for permanently transformed MT4 cells with a CMV-EGFP reporter gene. Cell lines were maintained in RPMI 1640 medium supplemented with 10% heat-inactivated fetal calf serum, 2 mM L-glutamine, 0.1% NaHCO3, and antibiotics (0.02% gentamicin and 0.8% G418) and incubated in a humidified incubator with a 5% CO2 atmosphere at 37° C.
(§2) N155H and Q148R mutant Integrase coding sequences were constructed in the pUC19-5′HXB2D vector (XbaI-SalI fragment of pHXB2D), containing the HIV-1 clone HXB2D IN coding sequence, by using a QuikChange site-directed mutagenesis kit (Stratagene, La Jolla, Calif.) and HPLC-purified primers (Genset Oligos, La Jolla, Calif.). Altered plasmid sequences were confirmed by dideoxyribose sequencing. For generation of site-directed mutant (SDM) virus stocks, MT4 cells were subcultured at a density of 250,000 cells/ml on the day before transfection. Cells were pelleted and resuspended in phosphate-buffered saline at a concentration of 3.1×10^6 cells/ml. A 0.8-ml portion ([…]) was used for each transfection. Transfections were performed with a Bio-Rad Gene Pulser (Bio-Rad, Hercules, Calif.) with 0.4-cm electrode cuvettes (Bio-Rad). Cells were electroporated with 10 μg of SalI-linearized pUC19-3′HXB2D (SalI-XbaI fragment of pHXB2D) and 5 μg of SalI-digested SDM at 250 μF and 300 V, followed by a 30-min incubation at room temperature. Ten ml of fresh culture medium was then added to the suspension of transfected cells, and incubation was performed at 37° C. in a humidified atmosphere with 5% CO2. Cell cultures were monitored for the appearance of cytopathic effect (CPE).
(§3) The inhibitory antiviral activity of different compounds was determined in a cell-based HIV-1 replication assay. MT4-LTR-EGFP cells (150,000 cells/ml) were infected with HIV-1 (IIIB or SDM strains Q148R, N155H, or G140S-Q148H; multiplicity of infection [MOI] of 0.0025) in the presence or absence of inhibitor. After 3 days of incubation, the inhibition of HIV replication was quantified by measuring EGFP fluorescence, and expressed as the compound concentration required for 50% inhibition of HIV-1 replication in cell culture (EC50).

[3] = system: HIV-1 SDM strain Q148R; experiment: cell-based HIV-1 replication assay in MT4-LTR-EGFP cells, Q148R mutant; conditions: fold change in activity against Q148R mutant compared to wild type HIV
Excerpt: as §1, §2, §3

[4] = system: HIV-1 SDM strain N155H; experiment: cell-based HIV-1 replication assay in MT4-LTR-EGFP cells, N155H mutant; conditions: fold change in activity against N155H mutant compared to wild type HIV
Excerpt: as §1, §2, §3

CCN1C[C@H](C)n2c(c(O)c3c(=O)n4nc(c32)C(=O)NCCCCOc2cc(F)ccc2C4)C1=O [Compound 24]
EC50 [1]: 11 nM
FC-G140S-Q148H [2]: 179.1
FC-Q148R [3]: 4.3
FC-N155H [4]: 10.4

CCN1C[C@H](C)n2c(c(O)c3c(=O)n4nc(c32)N(C2CC2)S(=O)(=O)CCCCOc2cc(F)ccc2C4)C1=O [Compound 12]
EC50 [1]: 13 nM
FC-G140S-Q148H [2]: 5.1
FC-Q148R [3]: 0.7
FC-N155H [4]: 3.5

CCN1C[C@H](C)n2c(c(O)c3c(=O)n4nc(c32)N(C)S(=O)(=O)[C@H](C)CCCCOc2cc(F)ccc2C4)C1=O [Compound 10]
EC50 [1]: 17 nM
FC-G140S-Q148H [2]: 1.2
FC-Q148R [3]: 0.5
FC-N155H [4]: 2.8

CCN1C[C@H](C)n2c(c(O)c3c(=O)n4nc(c32)NCCCCCCN(C)C(=O)c2cc(F)ccc2C4)C1=O [Compound 42]
EC50 [1]: 3170 nM
FC-G140S-Q148H [2]: 2.6
FC-Q148R [3]: 0.5
FC-N155H [4]: 3.3

CC(C)N1C[C@H](C)n2c(c(O)c3c(=O)n4nc(c32)C(=O)NCCCCCOc2cc(F)ccc2C4)C1=O [Compound 29]
EC50 [1]: 19 nM
FC-G140S-Q148H [2]: 2.2
FC-Q148R [3]: 0.4
FC-N155H [4]: 3.8

CCN1C[C@H](C)n2c(c(O)c3c(=O)n4nc(c32)N(C2CC2)S(=O)(=O)CCCCCOc2cc(F)ccc2C4)C1=O [Compound 16]
EC50 [1]: 43 nM
FC-G140S-Q148H [2]: 1.3
FC-Q148R [3]: 0.6
FC-N155H [4]: 3.5

CCN1c2nn(c(=O)c3c(O)c4n(c23)[C@@H](C)CN(C(C)C)C4=O)Cc2ccc(F)cc2OCCCCS1(=O)=O [Compound 13]
EC50 [1]: 11 nM
FC-G140S-Q148H [2]: 2.6
FC-Q148R [3]: 0.7
FC-N155H [4]: 3.5

CCN1C[C@H](C)n2c(c(O)c3c(=O)n4nc(c32)N(C)S(=O)(=O)CCC/C=C\COc2cc(F)ccc2C4)C1=O [Compound 50]
EC50 [1]: 11 nM
FC-G140S-Q148H [2]: 1.2
FC-Q148R [3]: 0.3
FC-N155H [4]: 2.8

CCN1C[C@H](C)n2c(c(O)c3c(=O)n4nc(c32)N(C)S(=O)(=O)CCCCOc2cc(F)c(Cl)cc2C4)C1=O [Compound 17]
EC50 [1]: 24 nM
FC-G140S-Q148H [2]: 1.9
FC-Q148R [3]: 0.6
FC-N155H [4]: 4.7

CCN1C[C@H](C)n2c(c(O)c3c(=O)n4nc(c32)NCCCCCNC(=O)c2cc(F)ccc2C4)C1=O [Compound 40]
EC50 [1]: 1100 nM
FC-G140S-Q148H [2]: 3.1
FC-Q148R [3]: 0.4
FC-N155H [4]: 6.2

CCN1C[C@H](C)n2c(c(O)c3c(=O)n4nc(c32)N(C)S(=O)(=O)CCCCCOc2cc(F)c(F)cc2C4)C1=O [Compound 20]
EC50 [1]: 17 nM
FC-G140S-Q148H [2]: 1.5
FC-Q148R [3]: 0.6
FC-N155H [4]: 4.8

CCN1CCn2c(c(O)c3c(=O)n4nc(c32)C(=O)N(C)CCCCCOc2cc(F)ccc2C4)C1=O [Compound 38]
EC50 [1]: 29 nM
FC-G140S-Q148H [2]: 106.3
FC-Q148R [3]: 1.2
FC-N155H [4]: 6.8

CCN1C[C@H](C)n2c(c(O)c3c(=O)n4nc(c32)N(CC)S(=O)(=O)CCCCCOc2cc(F)ccc2C4)C1=O [Compound 15]
EC50 [1]: 33 nM
FC-G140S-Q148H [2]: 1.4
FC-Q148R [3]: 0.5
FC-N155H [4]: 3.4

CCN1C[C@H](C)n2c(c(O)c3c(=O)n4nc(c32)N2CCN(CCCCCOc3cc(F)ccc3C4)S2(=O)=O)C1=O [Compound 2a]
EC50 [1]: 682 nM
FC-G140S-Q148H [2]: 3.3
FC-Q148R [3]: 0.7
FC-N155H [4]: 25.3

CCN1C[C@H](C)n2c(c(O)c3c(=O)n4nc(c32)N(C)S(=O)(=O)CC/C=C\COc2cc(F)ccc2C4)C1=O [Compound 49]
EC50 [1]: 8 nM
FC-G140S-Q148H [2]: 1.6
FC-Q148R [3]: 0.5
FC-N155H [4]: 5.3

CCN1C[C@H](C)n2c(c(O)c3c(=O)n4nc(c32)C(=O)NCCCCCOc2cc(Cl)ccc2C4)C1=O [Compound 25]
EC50 [1]: 138 nM
FC-G140S-Q148H [2]: 3.7
FC-Q148R [3]: 0.3
FC-N155H [4]: 3.5

CCN1C[C@H](C)n2c(c(O)c3c(=O)n4nc(c32)C(=O)N(C)CCCCCOc2cc(F)c(F)cc2C4)C1=O [Compound 34]
EC50 [1]: 18 nM
FC-G140S-Q148H [2]: 5.9
FC-Q148R [3]: 0.4
FC-N155H [4]: 7.4

CCN1C[C@H](C)n2c(c(O)c3c(=O)n4nc(c32)C(=O)N(C)CCCCOc2cc(F)ccc2C4)C1=O [Compound 30]
EC50 [1]: 28 nM
FC-G140S-Q148H [2]: 572.0
FC-Q148R [3]: 41.1
FC-N155H [4]: 410.4

CCN1C[C@H](C)n2c(c(O)c3c(=O)n4nc(c32)N(C)S(=O)(=O)CCCNC(=O)c2cc(F)ccc2C4)C1=O [Compound 23]
EC50 [1]: 7 nM
FC-G140S-Q148H [2]: 2.1
FC-Q148R [3]: 0.7
FC-N155H [4]: 9.6

CCN1C[C@H](C)n2c(c(O)c3c(=O)n4nc(c32)N(C)S(=O)(=O)CCCCCNC(=O)c2cc(F)ccc2C4)C1=O [Compound 21]
EC50 [1]: 54 nM
FC-G140S-Q148H [2]: 1.9
FC-Q148R [3]: 0.6
FC-N155H [4]: 6.6

CCN1C[C@H](C)n2c(c(O)c3c(=O)n4nc(c32)N2CCN(CCCCOc3cc(F)ccc3C4)S2(=O)=O)C1=O [Compound 47]
EC50 [1]: 4 nM
FC-G140S-Q148H [2]: 3.2
FC-Q148R [3]: 0.7
FC-N155H [4]: 4.4

CCN1C[C@H](C)n2c(c(O)c3c(=O)n4nc(c32)N(C)S(=O)(=O)CCCCCOc2cc(F)c(Cl)cc2C4)C1=O [Compound 18]
EC50 [1]: 47 nM
FC-G140S-Q148H [2]: 1.8
FC-Q148R [3]: 0.8
FC-N155H [4]: 4.7

C[C@H]1CN(C2CC2)C(=O)c2c(O)c3c(=O)n4nc(c3n21)C(=O)N(C)CCCCCOc1cc(F)ccc1C4 [Compound 37]
EC50 [1]: 22 nM
FC-G140S-Q148H [2]: 109.5
FC-Q148R [3]: 0.8
FC-N155H [4]: 8.8

CCN1C[C@H](C)n2c(c(O)c3c(=O)n4nc(c32)NCCCNC(=O)c2cc(F)ccc2C4)C1=O [Compound 39]
EC50 [1]: 3370 nM
FC-G140S-Q148H [2]: 2.8
FC-Q148R [3]: 1.1
FC-N155H [4]: 4.6

CCN1C[C@H](C)n2c(c(O)c3c(=O)n4nc(c32)N(C)S(=O)(=O)CCC/C=C/COc2cc(F)ccc2C4)C1=O [Compound 51]
EC50 [1]: 13 nM
FC-G140S-Q148H [2]: 3.4
FC-Q148R [3]: 0.4
FC-N155H [4]: 9.6

CCN1C[C@H](C)n2c(c(O)c3c(=O)n4nc(c32)N(C)CCCCCCNC(=O)c2cc(F)ccc2C4)C1=O [Compound 43]
EC50 [1]: 101 nM
FC-G140S-Q148H [2]: 0.8
FC-Q148R [3]: 0.5
FC-N155H [4]: 2.0

CCN1C[C@H](C)n2c(c(O)c3c(=O)n4nc(c32)N(C)CCCCCCOc2cc(F)ccc2C4)C1=O [Compound 46]
EC50 [1]: 1490 nM
FC-G140S-Q148H [2]: 3.6
FC-Q148R [3]: 0.3
FC-N155H [4]: 40.8

CCN1C[C@H](C)n2c(c(O)c3c(=O)n4nc(c32)N(C)S(=O)(=O)CCCOc2cc(F)ccc2C4)C1=O [Compound 8]
EC50 [1]: 10 nM
FC-G140S-Q148H [2]: 11.3
FC-Q148R [3]: 3.3
FC-N155H [4]: 11.7

CCN1C[C@H](C)n2c(c(O)c3c(=O)n4nc(c32)N2CCN(CCCCCOc3cc(F)ccc3C4)S2(=O)=O)C1=O [Compound 2b]
EC50 [1]: 8 nM
FC-G140S-Q148H [2]: 6.2
FC-Q148R [3]: 0.9
FC-N155H [4]: 8.0

CCN1CCn2c(c(O)c3c(=O)n4nc(c32)C(=O)NCCCCCOc2cc(F)ccc2C4)C1=O [Compound 27]
EC50 [1]: 5 nM
FC-G140S-Q148H [2]: 668.8
FC-Q148R [3]: 3.0
FC-N155H [4]: 8.6

CC(C)N1C[C@H](C)n2c(c(O)c3c(=O)n4nc(c32)C(=O)N(C)CCCCCOc2cc(F)ccc2C4)C1=O [Compound 35]
EC50 [1]: 30 nM
FC-G140S-Q148H [2]: 2.7
FC-Q148R [3]: 0.4
FC-N155H [4]: 4.8
